Series [1] deals with T1, PXR LBD (Homo sapiens, UniProt O75469).
T1 construct: GAL4-DBD/PXR(132–188); VP16-AD/PXR(189–434); expressed in transfected cells; host or cells: HepG2
T1 sequence (O75469 132-188): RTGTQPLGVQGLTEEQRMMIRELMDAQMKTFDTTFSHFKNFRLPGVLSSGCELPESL
T1 sequence (O75469 189-434): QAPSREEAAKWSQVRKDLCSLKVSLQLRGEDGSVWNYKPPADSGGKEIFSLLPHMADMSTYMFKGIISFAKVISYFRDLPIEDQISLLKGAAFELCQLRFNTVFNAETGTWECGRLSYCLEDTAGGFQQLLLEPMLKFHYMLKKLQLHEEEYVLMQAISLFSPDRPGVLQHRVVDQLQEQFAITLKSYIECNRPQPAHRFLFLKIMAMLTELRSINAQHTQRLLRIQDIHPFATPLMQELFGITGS
As to the kind of experiment: Mammalian two-hybrid PXR LBD assembly assay. The format is cell-based. The note with it: HepG2, 10 µM, 24 h. As for the experimental part:
For the mammalian two-hybrid PXR ligand-binding domain assembly assay, 0.24 µg pGL4-G5, 0.01 µg pMetLuc2control, and 0.03 µg each of expression plasmids encoding GAL4-DBD/PXR(132–188) and VP16-AD/PXR(189–434) fusion proteins were used per well. Otherwise, batch transfection was performed as above with HepG2 cells.
Figure 5 PXR binding of phenylaminobenzosuberones is indicated by cellular PXR LBD assembly assay and inhibition of LBP-filled PXR mutant (A) Novel compounds induce PXR LBD assembly. […] (B) Effects of novel compounds on LBP-filled PXR mutant. HepG2 cells were transiently transfected with CYP3A4 reporter and expression plasmid encoding PXR(S208W/S247W/C284W) and treated as described above. […] Statistically significant differences are illustrated with asterisks. ** p ˂ 0.01, compared to respective treatments with DMSO analyzed by repeated measures one-way ANOVA with Dunnett’s multiple comparisons test.

Series [2] deals with T2, CAR1 (Homo sapiens, UniProt Q14994).
T2 construct: expressed in transfected cells; host or cells: HepG2
T2 sequence (Q14994 1-348 isoform Q14994-2): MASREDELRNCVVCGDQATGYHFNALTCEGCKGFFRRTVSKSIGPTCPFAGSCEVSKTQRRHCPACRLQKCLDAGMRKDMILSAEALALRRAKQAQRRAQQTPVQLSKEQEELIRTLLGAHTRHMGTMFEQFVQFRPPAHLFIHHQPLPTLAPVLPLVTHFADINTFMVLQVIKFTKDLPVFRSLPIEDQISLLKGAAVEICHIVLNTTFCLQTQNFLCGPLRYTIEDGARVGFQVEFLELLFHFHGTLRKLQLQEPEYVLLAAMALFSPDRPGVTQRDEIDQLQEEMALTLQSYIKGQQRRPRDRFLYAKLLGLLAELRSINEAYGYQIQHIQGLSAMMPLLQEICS
Description: Nuclear receptor selectivity reporter assay, CAR1. The format is cell-based. The note with it: HepG2, 10 µM. As for the experimental part: (§1) For testing nuclear receptor selectivity and LBP-filled PXR mutant activation, transient batch transfection was conducted as above, but with HepG2 cells and the following plasmids, with amounts per well of 0.23–0.27 µg pGL4-CYP3A4(-7830Δ7208-364) or pGL3(DR3)3Tk (as reporter for VDR), 0.01 µg pMetLuc2control, and 0.03 µg either CAR1, CAR3, VDR, or PXR(S208W/S247W/C284W) expression plasmids. In addition, 0.03 µg RXRα expression plasmid was added to CAR3 transfections. Metridia luciferase activity was measured from 10 µL of medium supernatant after adding 100 µL Renilla luciferase assay solution.
(§2) Figure 6 Selectivity of novel PXR ligands within the NR1I group of nuclear receptors. HepG2 cells were transiently transfected with CYP3A4 reporter and expression plasmids encoding (A) CAR1 or (B) CAR3, or (C) direct repeat (DR3)3 reporter and expression plasmid encoding VDR. Cells were treated with 0.2% DMSO or 10 µM chemicals as indicated. 1α,25(OH)2D3 was used at 1 µM.
A general note: Reporter assays use an easily measured gene product as a stand-in for the process of interest.

Series [3] addresses T3, CAR3 (Homo sapiens, UniProt Q14994, DEL233-236).
T3 construct: expressed in transfected cells; host or cells: HepG2
T3 sequence (Q14994 with tags, fused parts or gaps isoform Q14994-8 DEL233-236): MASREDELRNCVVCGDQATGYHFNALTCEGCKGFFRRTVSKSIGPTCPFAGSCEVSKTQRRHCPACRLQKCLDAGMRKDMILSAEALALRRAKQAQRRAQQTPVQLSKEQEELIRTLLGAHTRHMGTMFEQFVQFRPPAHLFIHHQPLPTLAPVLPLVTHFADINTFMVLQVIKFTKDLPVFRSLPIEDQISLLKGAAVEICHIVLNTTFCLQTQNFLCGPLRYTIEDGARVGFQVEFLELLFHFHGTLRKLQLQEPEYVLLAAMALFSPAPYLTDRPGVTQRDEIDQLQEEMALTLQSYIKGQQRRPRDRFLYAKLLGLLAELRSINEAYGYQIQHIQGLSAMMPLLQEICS
T3 sequence (P19793 1-462 partner): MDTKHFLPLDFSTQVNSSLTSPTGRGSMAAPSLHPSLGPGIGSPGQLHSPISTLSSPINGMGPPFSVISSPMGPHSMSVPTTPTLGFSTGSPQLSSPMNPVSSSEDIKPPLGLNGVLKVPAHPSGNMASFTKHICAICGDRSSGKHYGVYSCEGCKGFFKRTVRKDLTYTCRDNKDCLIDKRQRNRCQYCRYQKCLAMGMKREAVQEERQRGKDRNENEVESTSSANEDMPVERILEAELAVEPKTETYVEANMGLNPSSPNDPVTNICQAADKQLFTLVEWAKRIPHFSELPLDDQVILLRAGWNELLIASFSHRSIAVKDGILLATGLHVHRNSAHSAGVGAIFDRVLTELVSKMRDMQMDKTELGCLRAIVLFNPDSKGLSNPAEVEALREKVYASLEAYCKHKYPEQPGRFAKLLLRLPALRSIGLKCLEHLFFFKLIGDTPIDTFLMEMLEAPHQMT
As to the kind of experiment: Nuclear receptor selectivity reporter assay, CAR3. Conditions: for impairment of ligand-induced activation of CAR3 by CITCO: HepG2, 10 µM compound + 10 µM CITCO. The format is cell-based. As for the experimental part:
as §1, §2

The target in series [4] is T4, VDR (Homo sapiens, UniProt P11473).
T4 construct: expressed in transfected cells; host or cells: HepG2
T4 sequence (P11473 1-427): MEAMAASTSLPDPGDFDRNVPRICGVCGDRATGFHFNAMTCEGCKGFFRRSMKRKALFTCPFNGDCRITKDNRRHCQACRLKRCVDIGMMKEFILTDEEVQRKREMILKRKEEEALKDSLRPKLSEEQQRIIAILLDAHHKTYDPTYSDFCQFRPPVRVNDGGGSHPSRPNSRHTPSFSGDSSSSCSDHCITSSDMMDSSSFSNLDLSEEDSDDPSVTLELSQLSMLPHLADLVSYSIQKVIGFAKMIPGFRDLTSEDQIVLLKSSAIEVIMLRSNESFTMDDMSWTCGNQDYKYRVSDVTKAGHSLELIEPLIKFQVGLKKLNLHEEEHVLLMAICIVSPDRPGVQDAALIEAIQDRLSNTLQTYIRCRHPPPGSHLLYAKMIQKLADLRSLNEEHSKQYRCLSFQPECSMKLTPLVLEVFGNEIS
Description: Nuclear receptor selectivity reporter assay, VDR. The format is cell-based. The note with it: for reduction of ligand-induced VDR activation: HepG2, 10 µM compound + 1 µM 1α,25(OH)2D3. As for the experimental part:
as §1, §2

Series [5] relates to ABCB1. Description: PXR target gene mRNA expression in LS174T cells (RT-qPCR). The note with it: for effect on rifampicin-mediated induction of ABCB1: 10 µM compound + 10 µM rifampicin, 72 h; for expression of ABCB1 mRNA: 10 µM single treatment, 48 h (109) or 72 h (73, 100).
Description: In chemical treatments, phenol red-free DMEM was used, and regular FBS was replaced by dextran-coated charcoal-treated FBS. For gene expression analyses, 0.3 × 10^6 LS174T cells were seeded per well of a 12-well plate. The next day, chemical treatment was initiated for 48–72 h, with daily medium change.
Total RNA was prepared from LS174T and HepaRG cells using the NucleoSpin RNA kit (Macherey-Nagel, Düren, Germany). RNA integrity was analyzed by formaldehyde-agarose gel electrophoresis. First strand cDNA was synthesized as described earlier [37]. Relative quantification analyses were conducted with TaqMan RT-PCR utilizing the BioMark HD system and FLEX Six Gene Expression Integrated Fluidic Circuits (Fluidigm, South San Francisco, CA, USA) as described previously [34]. TaqMan gene expression assays were either the commercially available predesigned assays Hs00184500_m1 (ABCB1) and Hs00604506_m1 (CYP3A4) (Thermo Fischer Scientific) or have been described previously: CYP2B6 [31] and 18S rRNA [39]. Data were analyzed as described previously [37]. Gene expression levels were normalized to respective 18S rRNA levels.

With `O=C(Cc1ccccc1)Nc1ccc(F)c(Nc2ccc3c(c2)CCCCC3=O)c1` [Compound 100], the “assembly of the PXR LBD” value in series [1] is listed as “induced the assembly of the PXR LBD”. In addition, the “suppression of constitutive activity of CAR1” value in series [2] was found to be 30%. Moreover, in series [3] (HepG2, 10 µM), the “activation of CAR3 on their own” value is “Neither CAR3 nor VDR were activated”. Moreover, the “impairment of ligand-induced activation of CAR3 by CITCO” value in series [3] is given as “no respective effects”. The “activation of VDR on their own” value in series [4] (HepG2, 10 µM) was “Neither CAR3 nor VDR were activated”. The “reduction of ligand-induced VDR activation” value in series [4] is reported as “no respective effects”. In series [5], the “effect on rifampicin-mediated induction of ABCB1” value is “suppressed its rifampicin-mediated induction” and the “expression of ABCB1 mRNA” value is listed as “not induced”.
Consider `Cc1ccc(NC(=O)Cc2ccccc2)cc1Nc1ccc2c(c1)CCCCC2=O` [Compound 73], for which the “assembly of the PXR LBD” value in series [1] is listed as “induced the assembly of the PXR LBD”. Further, in series [2], the “suppression of constitutive activity of CAR1” value was 30%. The “activation of CAR3 on their own” value in series [3] (HepG2, 10 µM) was “Neither CAR3 nor VDR were activated”. Besides, the “impairment of ligand-induced activation of CAR3 by CITCO” value in series [3] is given as 46%. For the same compound, the “activation of VDR on their own” value in series [4] (HepG2, 10 µM) is listed as “Neither CAR3 nor VDR were activated”. In series [4], the “reduction of ligand-induced VDR activation” value amounted to 51%. For the same compound, in series [5], the “effect on rifampicin-mediated induction of ABCB1” value is recorded as “suppressed its rifampicin-mediated induction” and the “expression of ABCB1 mRNA” value was “not induced”.
As to `O=C(Nc1ccc(F)c(Nc2ccc3c(c2)CCCCC3=O)c1)c1cccc(F)c1` [Compound 109], in series [1], the “assembly of the PXR LBD” value is recorded as “induced the assembly of the PXR LBD”. Moreover, the “activation of CAR1” value in series [2] is “did not reach statistical significance”. Moreover, the “activation of CAR3, % of the effect of CITCO” value in series [3] (HepG2, 10 µM) is on record as 12%. For the same compound, the “activation of VDR, % of the effect of 1α,25-dihydroxy vitamin D3” value in series [4] (HepG2, 10 µM) was determined as 5%. In addition, the “expression of ABCB1 mRNA” value in series [5] is “induced to a lesser extent than by rifampicin”.

Source of the values: PMC9030254, “Target Hopping from Protein Kinases to PXR: Identification of Small-Molecule Protein Kinase Inhibitors as Selective Modulators of Pregnane X Receptor from TüKIC Library” (Cells, 2022).
